From patent publication US10544075B2 (OREGON HEALTH & SCIENCE UNIVERSITY, priority 2016, dated 2020)

Assays:
[1] = rat heart rate elevation and anti-goiter assays; cited from earlier work
Hairless (Hr) mRNA = assay: Induction of Hairless (Hr) mRNA expression in the brain by qPCR after ip administration; assay type: in vivo, C57BL/6J mice; details: for induction of Hr expression: 9.14 μmol/kg ip; for induction of Hr expression / EC50 of Hr mRNA induction in the brain / Hr induction compared to GC-1: 2 hr; for induction of Hr expression / Hr induction compared to GC-1 / potency greater than GC-1 (Hr induction, single dose): brain; for induction of Hr expression / EC50 of Hr mRNA induction in the brain: normalized to GAPDH mRNA; for EC50 of Hr mRNA induction in the brain: ip, ±SEM; for Hr induction compared to GC-1: analogs at 0.914 μmol/kg ip; for potency greater than GC-1 (Hr induction, single dose): from single dose comparison
Experimental: Euthanasia was performed on three mice per dose at 2 hr and the tissues were harvested. The brain tissues collected for qPCR analysis were processed according to a protocol for RNA extraction using Trizol reagent and the PureLink RNA mini kit, using Qiagen RNase-free DNase kit during the optional DNase treatment step. 1 μg of extracted RNA was used to synthesize cDNA via a reverse transcription (RT) reaction using the Qiagen QuantiTect Reverse Transcription kit. DNA contamination was controlled for by duplicating one sample without the addition of RT enzyme. Expression of the Hairless (Hr) gene was measured by QPCR using the QuantiTect SYBR green PCR kit from Qiagen. The primer sequences for hairless ([…]; Rev: [NT] were previously described by Barca-Mayo19. The template cDNA was diluted 2-fold to minimize the interference of RT reagents in the qPCR reaction. Glyceraldehyde-3-Phosphate Dehydrogenase (GAPDH) was the housekeeping gene used for normalizing between samples. Data analysis for single dose experiment was done using the comparative CT method to look at the relative differences in Hr gene expression.

[2] = Distribution study in brain and serum after systemic (ip) administration, LC-MS/MS; assay type: in vivo, C57BL/6J mice; details: 9.14 μmol/kg ip, 1 hr post-injection
Experimental: Euthanasia was performed on three mice per dose at 1 hr and the tissues and blood were harvested. Tissues were immediately frozen and blood was kept on ice for a minimum of 30 minutes and then spun down at 7,500×G for 15 minutes. Serum (100 uL) was collected and was stored with tissues at −80° C. until samples were processed.
The serum samples were warmed to RT and 10 uL of 2.99 μM internal standard (D6-GC-1) was added to them. Acetonitrile (500 uL) was added and the sample was vortexed for 20 seconds. The sample was then centrifuged at 10,000×G for 15 minutes at 4° C. Next, 90% of the upper supernatant was transferred to a glass test tube and concentrated using a speedvac for 1.5 hr at 45° C. The dried sample was then dissolved in 400 μL of 50:50 ACN:H2O and vortexed for 20 seconds. The resulting mixture was transferred to an Eppendorf tube and centrifuged at 10,000×G for 15 minutes. The supernatant was filtered with […] centrifugal filters and submitted for LCMS/MS analysis. […] The processing was performed exactly the same except after filtering the sample was split among 6 vials.
The brain samples were warmed to RT and transferred to a homogenizer tube with 5 GoldSpec ⅛ chrome steel balls (Applied Industrial Technologies). The resulting tube was weighed and then 1 mL of H2O was added, followed by 10 μL of 2.99 μM internal standard (D6-Sobetirome). The tube was homogenized with a Bead Bug for 30 seconds and then transferred to a Falcon® tube containing 3 mL of ACN. A 1 ml volume of ACN was used to wash the homogenizer tube. Then the solution was transferred back to the Falcon® tube. The sample was then processed using the same method for the serum processing described above except the sample was concentrated in a glass tube using a speed vac for 4 hr at 45° C.
A distribution study was carried out in C57BL/6J mice to determine the concentrations in brain and serum after systemic (ip) administration. […] Tissue and blood were collected 1 hr post-injection and the concentration of the drugs was determined by LC-MS/MS analysis (FIG. 2).

hTRα1 = hTRα1 (Homo sapiens (Human), UniProt P10827); assay: TRE-driven dual luciferase transactivation assay, TRα; assay type: cell-based; details: transiently transfected HEK293 cells; ±SEM
Chain of hTRα1 (P10827 other isoform, or with tags, fused parts or gaps): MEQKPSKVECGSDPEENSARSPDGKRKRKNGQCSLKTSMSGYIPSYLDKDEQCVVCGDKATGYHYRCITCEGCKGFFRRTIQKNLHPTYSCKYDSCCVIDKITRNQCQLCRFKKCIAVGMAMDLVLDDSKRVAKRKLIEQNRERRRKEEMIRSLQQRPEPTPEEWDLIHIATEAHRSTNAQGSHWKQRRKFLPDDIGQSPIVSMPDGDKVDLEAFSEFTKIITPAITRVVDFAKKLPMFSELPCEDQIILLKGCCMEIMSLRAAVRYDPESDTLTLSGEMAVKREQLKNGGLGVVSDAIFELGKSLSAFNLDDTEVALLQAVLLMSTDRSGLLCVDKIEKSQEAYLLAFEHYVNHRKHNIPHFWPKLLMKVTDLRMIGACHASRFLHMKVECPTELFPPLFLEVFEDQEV
Experimental: The cells were trypsinized with 0.25% trypsin, then diluted to 5×10^5 cells/mL with high glucose DMEM. […] 1.5 μg of TR expression vector (full length TRα-CMV or TRβ-CMV), 1.5 μg of a reporter plasmid containing a DR4 thyroid hormone response element (TRE) direct repeat spaced by four nucleotides (AGGTCAcaggAGGTCA) cloned upstream of a minimal thymidine kinase promoter linked to a firefly luciferase coding sequence, and 0.75 μg of a pRL-SV40 constitutive Renilla luciferase reporter plasmid were diluted into 540 μl of OptiMEM. 27 μL of lipofectamine reagent was diluted into 540 μL of OptiMEM. The plasmid and lipofectamine dilutions were combined then incubated at RT for 10 min. The mixture was then diluted into 4.29 mL of OptiMEM. Plates were washed with 100 μL of phosphate buffered saline (PBS) at pH 7.2 without magnesium or calcium chloride per well. Transfection mixtures were added at 50 μL per well, then incubated at 37° C. for 4 hours. […]
(§1) Cells were assayed for luciferase activity using the Promega DualGlo kit. […] A 50 μl volume of Stop & Glo Reagent was added per well, then the plate was read for Renilla luciferase activity. Data normalized to Renilla internal control were analyzed with GraphPad Prism v.4a using the sigmoid dose response model to generate EC50 values±SEM.

hTRβ1 [3] = target: hTRβ1 (Homo sapiens (Human), UniProt P10828); assay: TRE-driven dual luciferase transactivation assay, TRβ; assay type: cell-based; details: transiently transfected HEK293 cells; ±SEM
Chain of hTRβ1 (Homo sapiens (Human), UniProt P10828) (P10828 whole entry, looked up): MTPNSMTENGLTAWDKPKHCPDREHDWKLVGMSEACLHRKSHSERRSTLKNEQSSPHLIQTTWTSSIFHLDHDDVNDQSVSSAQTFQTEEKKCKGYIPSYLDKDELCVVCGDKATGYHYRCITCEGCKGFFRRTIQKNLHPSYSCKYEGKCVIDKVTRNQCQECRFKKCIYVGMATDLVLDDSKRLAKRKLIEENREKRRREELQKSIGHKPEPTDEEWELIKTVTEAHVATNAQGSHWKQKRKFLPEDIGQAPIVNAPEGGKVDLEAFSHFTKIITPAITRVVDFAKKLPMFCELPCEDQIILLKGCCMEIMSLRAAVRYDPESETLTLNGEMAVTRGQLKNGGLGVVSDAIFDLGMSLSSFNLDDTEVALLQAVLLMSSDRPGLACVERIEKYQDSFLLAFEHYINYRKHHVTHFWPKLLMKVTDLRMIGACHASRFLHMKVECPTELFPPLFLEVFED
Experimental: (§2) The cells were trypsinized with 0.25% trypsin, then diluted to 5×10^5 cells/mL with high glucose DMEM. […] 1.5 μg of TR expression vector (full length TRα-CMV or TRβ-CMV), 1.5 μg of a reporter plasmid containing a DR4 thyroid hormone response element (TRE) direct repeat spaced by four nucleotides (AGGTCAcaggAGGTCA) cloned upstream of a minimal thymidine kinase promoter linked to a firefly luciferase coding sequence, and 0.75 μg of a pRL-SV40 constitutive Renilla luciferase reporter plasmid were diluted into 540 μl of OptiMEM. 27 μL of lipofectamine reagent was diluted into 540 μL of OptiMEM. The plasmid and lipofectamine dilutions were combined then incubated at RT for 10 min. The mixture was then diluted into 4.29 mL of OptiMEM. Plates were washed with 100 μL of phosphate buffered saline (PBS) at pH 7.2 without magnesium or calcium chloride per well. Transfection mixtures were added at 50 μL per well, then incubated at 37° C. for 4 hours. Modified DME/F-12 Ham's medium without phenol red containing 15 mM HEPES and bicarbonate, 5 mM L-glutamine, charcoal-stripped FBS, 50 units/mL penicillin and 50 μg/mL streptomycin was added at 50 μL per well, then the plates were incubated at 37° C. for 20 hours. Drug stocks were made at 10 mM in DMSO, then serially diluted to 1× concentrations in DME/F-12 Ham's. Plates were washed with 100 μL of PBS (pH 7.2) per well. 100 μL of each drug stock was added to the wells in triplicate, and then the plates were incubated at 37° C. for 24 hours.
as §1

hTRβ1 [4] = assay: as above; assay type: cell-based, human; details: transactivation assays in HEK293 cells
Experimental: as §2, §1

Human FAAH = Human FAAH (Homo sapiens (Human), UniProt O00519); assay: FAAH activity in cell homogenate; assay type: biochemical
Chain of Human FAAH (O00519 whole entry): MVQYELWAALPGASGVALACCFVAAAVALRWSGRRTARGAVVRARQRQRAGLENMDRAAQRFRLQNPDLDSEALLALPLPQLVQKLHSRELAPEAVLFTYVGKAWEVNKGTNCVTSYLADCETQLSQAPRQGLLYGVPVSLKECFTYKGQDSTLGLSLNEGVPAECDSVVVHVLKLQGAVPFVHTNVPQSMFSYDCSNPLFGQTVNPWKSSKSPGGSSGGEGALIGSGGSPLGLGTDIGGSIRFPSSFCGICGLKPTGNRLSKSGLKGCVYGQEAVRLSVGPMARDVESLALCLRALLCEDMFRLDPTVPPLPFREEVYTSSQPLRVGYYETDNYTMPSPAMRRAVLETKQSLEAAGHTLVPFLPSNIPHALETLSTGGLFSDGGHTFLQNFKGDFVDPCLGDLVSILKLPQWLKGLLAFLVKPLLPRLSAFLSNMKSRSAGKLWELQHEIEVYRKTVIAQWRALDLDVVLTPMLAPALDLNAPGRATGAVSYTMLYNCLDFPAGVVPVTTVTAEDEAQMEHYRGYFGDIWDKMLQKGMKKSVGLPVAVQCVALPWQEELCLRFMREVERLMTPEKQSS
Experimental: COS-7 cells (ATCC CRL-1651) were cultured in Dulbecco's Modified Eagle's Medium supplemented with 10% FBS, penicillin ([…]), and streptomycin ([…]). Cells (800,000/well) were seeded into 6-well plates (Falcon 353046) and left to adhere overnight. Cells were transfected with pcDNA4-FAAH-FLAG with Lipofectamine 2000 (Invitrogen) according to the manufacturer's protocol. Mock transfection controls were done with transfection reagent and no DNA. Cells were washed 4-days post transfection with cold PBS and scraped into TE buffer (125 mM Tris, 1 mM EDTA, pH 9) and sonicated (10 sec, 60 Sonic Dismembrator, Fisher). Cell homogenates were stored at −80° C. and protein concentrations were determined by BCA (Pierce). Cell homogenates were diluted into TE buffer containing 0.1% fatty-acid free BSA (Alfa Aesar). Substrates were added as 50× stocks in DMSO into 50 μL aliquots of homogenate to a final concentration of 100 μM. Reactions were performed with homogenate protein at 31.25 μg/mL for 15 min at 37° C. Reactions were quenched with 100 μL acetonitrile and vortexed for 20 s. Samples were clarified by centrifuge (10,000 rpm, 15 min, 4° C.). The supernatant is diluted 50-fold into 2:1 MeCN:H2O containing 300 nM d11-arachindonic acid and 30 nM d6-sobetirome. Samples were centrifuged again (13,200 rpm, 15 min, 4° C.). Products were quantified by LC/MS-MS with standard curves generated from mock samples. Observed rates are expressed as nmol product per mg protein homogenate per min.
FAAH was overexpressed in COS-7 cells as described above and cell homogenate was used to measure observed rates of substrate cleavage compared with the classic endogenous FAAH substrate anandamide (AEA). Substrate were all tested at 100 μM. Compared to AEA, the thyromimetic amides MA-GC 1 (9-fold), MA-JD20 (31-fold), and MA-JD21 (20-fold) show decreased rates. […] Observed rates are expressed as nmol product per mg homogenate protein per min.

[5] = Single time-point drug distribution of parent drugs from amides in brain and serum; assay type: in vivo, C57Bl/6 mice; details: equimolar systemic dose of 3.05 μmol/kg, 1 hour, brain
Experimental: Wild type male C57Bl/6 mice, aged 8-10 weeks, were housed in a climate-controlled room with a 12 hour light-dark cycle with ad libitum access to food and water. To compare the single time-point drug distribution of JD-20 with JD-20 generated from the amide MA-JD20, and JD-21 with JD-21 generated from the amide MA-JD-21, the concentrations of the parent drugs were analyzed in brain and serum of mice by administering a dose of 3.05 μmol/kg (three mice per dose) with JD-20, JD-21, MA-JD20 and MA-JD21 both intraperitoneally and orally. The compounds were dissolved in a mixture of 50:50 DMSO and 0.9% sodium chloride bacteriostatic solution. Oral gavage was performed with the use of plastic feeding tubes (20 ga×38 mm, Instech Laboratories Inc., PA, USA) connected to […] insulin syringes (Covidien LLC MA, USA). In both experiments, the mice were euthanized after 1 hour following drug administration.
The tissues were processed as follows: The brains were collected in previously weighed homogenizer tubes with 3 Gold Spec ⅛ chrome steel balls (Applied Industrial Technologies) and immediately frozen at −80° C. The blood samples were kept on ice for 30 mins and then spun down at 5400×G at 4° C. for 15 min. […]
The serum samples were warmed to room temperature. […] The serum samples thus prepared were submitted for LC-MS/MS analysis to quantify the amount of free JD-20 or JD-21. […]

Compound	induction of Hr expression (Hairless (Hr) mRNA)	EC50 of Hr mRNA induction in the brain (Hairless (Hr) mRNA)	brain:serum ratio compared to GC-1 [2]	brain uptake compared to GC-1 [2]	serum levels compared to GC-1 [2]	EC50 (hTRα1)	EC50 (hTRβ1 [3])	TRβ/TRα subtype selectivity from EC50 values (hTRβ1 [4])	Hr induction compared to GC-1 (Hairless (Hr) mRNA)	potency greater than GC-1 (Hr induction, single dose) (Hairless (Hr) mRNA)	other results
Cc1cc(CC(N)C(=O)O)cc(C)c1Oc1ccc(O)c(C(C)C)c1 (racemic) [DIMIT, 3′-isopropyl-3,5-dimethyl-DL-thyronine]	–	–	–	–	–	–	–	–	–	–	activity [1]: little measurable activity
CC(C)c1cc(Oc2c(Br)cc(C[C@H](N)C(=O)O)cc2Br)ccc1O [DIBIT, 3′-isopropyl-3,5-dibromo-L-thyronine]	–	–	–	–	–	–	–	–	–	–	potency relative to L-T4 [1]: 2-7 fold
Cc1cc(OCC(=O)O)cc(C)c1Cc1ccc(O)c(C(C)C)c1 [GC-1, sobetirome, reference compound]	1.6 fold	8.20 ± 12.65 µmol/kg	–	–	–	–	–	–	–	–	–
CC(C)c1cc(Cc2c(Br)cc(OCC(=O)O)cc2Br)ccc1O [JD-20, 2-(3,5-dibromo-4-((3-isopropyl-4-hydroxyphenyl)methyl)-phenoxy)acetic acid]	–	1.49 ± 1.08 µmol/kg	comparable to GC-1	somewhat lower	significantly lower than GC-1	7.96 ± 6.95 nM	0.88 ± 1.12 nM	9.04	comparable Hr induction to GC-1	roughly 10 fold	–
CC(C)c1cc(Cc2c(Cl)cc(OCC(=O)O)cc2Cl)ccc1O [JD-21, 2-(3,5-dichloro-4-((3-isopropyl-4-hydroxyphenyl)methyl)-phenoxy)acetic acid]	2.4 fold	1.21 ± 1.75 µmol/kg	higher brain:serum ratio than GC-1	roughly comparable brain uptake compared to GC-1	significantly lower than GC-1	7.82 ± 3.61 nM	1.24 ± 1.3 nM	6.31	comparable Hr induction to GC-1	roughly 10 fold	–
CNC(=O)COc1cc(Cl)c(Cc2ccc(O)c(C(C)C)c2)c(Cl)c1 [MA-JD21, 2-(3,5-dichloro-4-(4-hydroxy-3-isopropylbenzl)phenoxy)-N-methylacetamide]	–	–	–	–	–	–	–	–	–	–	FAAH substrate (Human FAAH; 100 μM, COS-7 cell homogenate): substrates for fatty-acid amide hydrolase (FAAH); decreased observed rate of substrate cleavage compared to AEA (Human FAAH; substrate 100 μM, FAAH overexpressed in COS-7 cell homogenate): 20 fold; parent drug delivered to the CNS compared to unmodified JD-20 or JD-21 [5]: delivers more of the parent drugs to the CNS
